{
  "source": "paper PMC12064818",
  "about": "“A general assay platform to study protein pharmacology using ligand-dependent structural dynamics” (Nature Communications, 2025)",
  "key": {"[1]": {"molecular_target": "T1, T7 Lig-C-HiBiT (DNA ligase) (Escherichia phage T7, UniProt P00969)", "T1 sequence (P00969 2-359)": "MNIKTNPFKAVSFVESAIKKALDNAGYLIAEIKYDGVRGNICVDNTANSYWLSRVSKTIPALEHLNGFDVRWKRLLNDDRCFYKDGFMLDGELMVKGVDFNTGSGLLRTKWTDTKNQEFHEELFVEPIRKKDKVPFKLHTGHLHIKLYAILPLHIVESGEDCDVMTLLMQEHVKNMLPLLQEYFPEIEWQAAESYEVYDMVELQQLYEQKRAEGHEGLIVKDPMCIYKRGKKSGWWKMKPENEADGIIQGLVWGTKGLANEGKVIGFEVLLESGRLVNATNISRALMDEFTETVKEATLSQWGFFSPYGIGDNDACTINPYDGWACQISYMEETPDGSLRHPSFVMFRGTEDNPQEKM", "assay": "SDR assay (aqueous ligand dispense), T7 Lig-C-HiBiT", "conditions": "for SDR assay data: 1 nM T7 Lig-C-HiBiT; for SDR assay data / SDR response: Log [ATP]; for SDR response: replicates"}, "[2]": {"test_system": "E. coli Lig-C-HiBiT (DNA ligase)", "assay": "SDR assay (aqueous ligand dispense), E. coli Lig-C-HiBiT", "conditions": "for SDR assay data: 1 nM E. coli Lig-C-HiBiT; for SDR assay data / SDR response: Log [ATP]; for SDR response: replicates"}, "C. elegans iPGM-C-HiBiT": {"molecular_target": "C. elegans iPGM-C-HiBiT (Caenorhabditis elegans, UniProt G5EFZ1)", "sequence (G5EFZ1 2-539)": "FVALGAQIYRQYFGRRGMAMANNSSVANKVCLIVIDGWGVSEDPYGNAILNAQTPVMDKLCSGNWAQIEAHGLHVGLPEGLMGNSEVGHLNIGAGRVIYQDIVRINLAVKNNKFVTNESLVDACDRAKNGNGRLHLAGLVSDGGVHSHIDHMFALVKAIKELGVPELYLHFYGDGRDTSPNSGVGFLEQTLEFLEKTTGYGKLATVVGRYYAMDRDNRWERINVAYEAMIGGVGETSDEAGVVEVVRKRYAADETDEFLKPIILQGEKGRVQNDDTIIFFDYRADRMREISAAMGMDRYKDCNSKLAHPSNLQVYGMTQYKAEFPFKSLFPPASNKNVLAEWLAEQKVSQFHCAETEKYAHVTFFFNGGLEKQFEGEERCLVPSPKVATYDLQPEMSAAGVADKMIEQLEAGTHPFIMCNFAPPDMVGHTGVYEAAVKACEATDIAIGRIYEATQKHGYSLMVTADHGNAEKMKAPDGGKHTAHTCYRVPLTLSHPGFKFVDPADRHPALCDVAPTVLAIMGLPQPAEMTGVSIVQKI", "assay": "iPGM coupled-enzyme assay, C. elegans iPGM-C-HiBiT", "type": "biochemical", "parameters": "cDNA, containing Phe2-Ile539 and the 6xHis tag; His6 (C); made in house; host or cells: E. coli", "conditions": "C. elegans iPGM-C-HiBiT Std 5 nM; ligand […] Std", "experimental": "The enzyme activity of C. elegans or B. malayi iPGM-C-HiBiT was measured using the functional coupled-enzyme luminescence end-point output assay for iPGM as previously described[16],[41],[68]. Briefly, the indicated concentration of 4 μL of iPGM-C-HiBiT was dispensed into 1536-well white, high solid base, medium bind plates in a pH 8.0 iPGM assay buffer (30 mM Tris-HCl, 5 mM magnesium sulfate, 20 mM potassium chloride and 0.08% BSA) with the BioRaptr 2. Compounds and controls were added to each plate with a pintool as described in Supplementary Data 8. Enzymes were incubated with peptide for > 20 min at ambient temperature, protected from light. […] Enzyme was at 5 nM final concentration for the standard assay with an estimated KM 3-phosphoglycerate (3PG) substrate concentration of 400 μM. Plates were incubated at ambient temperature for 10 min, protected from light, then measured by a ViewLux plate reader. […] See Supplementary Table 6 for additional details.\nSupplementary Table 6. Protocol for Co- factor independent phosphoglycerate mutase (iPGM) coupled-enzyme assay\nSupplementary Table 6: Protocol for Co-factor independent phosphoglycerate m utase (iPGM) coupled- enzym e assay […]\nNo enzym e control (colum n 1) and enzym e solutions (5 nM Bm iPGM-C-HiBiT or Ce iPGM-1 Reagent 4 µLC-HiBiT dialyzed against Zn/Mn final assay concentration) in PGM enzym e buffer; white/solid bottom , m edium bind, high base plates (Greiner), dispensed with BioRaptr 2 […]\nin 8-pt 1:6 titration series in duplicate); com pounds transferred to respective colum ns with […]\nTest com pounds: m acrocyclic peptides at 5 m M stock concentration in 16-pt, 1:3 titration […]\ntransferred to respective colum ns with Pintool\n3 Incubation 20 m inIncubate enzym e + com pounds at am bient tem p for 20 m in, protected from light 4 Reagent 2 µLSubstrate solution; 0.4 m M final concentration 3PG in coupled-enzym e substrate buffer; dispensed with BioRaptr 2\n5 Incubation 5 m inAm bient tem perature, protected from light\n6 Reagent 4 µLKinase-Glo Plus reagent (Prom ega) prepared according to m anufacturer’s protocol;\n7 Incubation 10 m inRoom tem perature, protected from light\n8 Detector ViewLuxRead plate lum inescence (Exposure = 1 sec; Gain = Medium; Speed = Slow; Binning = 2X) […]\nin 20% glycerol); Bm iPGM-C-HiBiT enzym e 10 µM stock solution in 20% glycerol.\nCoupled-enzym e substrate solution: 30 m M Tris-HCl, pH 8.0; 5 m M MgSO4; 20 m M KCl; 9 m M ADP (3 m M final); 0.1 4 units/µl enolase (Millipore Sigm a, Cat# E6126); 0.15 units/µl pyruvate kinase (from rabbit m uscle, Millipore Sigm a, Cat #"}, "[3]": {"conditions": "T7 Lig-C-HiBiT (1 nM), ligand 100 µM"}, "[4]": {"conditions": "E. coli Lig-C-HiBiT (1.0 nM), ligand 100 µM"}},
  "note": "Several values for one entry are separate records, joined by “and”; a condition that tells them apart may be missing. Identical values can stand only once.",
  "data": [
    {"molecule": "Nc1ncnc2c1ncn2[C@@H]1O[C@H](COP(=O)(O)OP(=O)(O)OP(=O)(O)O)[C@@H](O)[C@H]1O", "note": "[ATP]", "values": [
      {"measurement": "EC50", "setting": "[1]", "result": "≥ 100", "unit": "µM"},
      {"measurement": "SDR assay data", "setting": "[1]; M -2.85", "result": "216.5 and 209.6 and 219.5"},
      {"measurement": "SDR assay data", "setting": "[1]; M -3.15", "result": "141.4 and 163.1 and 159.6"},
      {"measurement": "SDR assay data", "setting": "[1]; M -3.45", "result": "83.0 and 105.1 and 112.1"},
      {"measurement": "SDR assay data", "setting": "[1]; M -3.75", "result": "54.1 and 71.7 and 73.7"},
      {"measurement": "SDR assay data", "setting": "[1]; M -4.35", "result": "22.4 and 27.8 and 30.1"},
      {"measurement": "SDR assay data", "setting": "[1]; M -4.65", "result": "18.5 and 22.1 and 22.3"},
      {"measurement": "SDR assay data", "setting": "[1]; M -4.95", "result": "14.4 and 13.8"},
      {"measurement": "SDR assay data", "setting": "[1]; M -5.25", "result": "9.3 and 8.9"},
      {"measurement": "SDR assay data", "setting": "[1]; M -5.55", "result": "9.2 and 6.3"},
      {"measurement": "SDR assay data", "setting": "[1]; M -6.16", "result": "7.3 and 4.5"},
      {"measurement": "SDR assay data", "setting": "[1]; M -6.46", "result": "6.2 and 3.9 and 5.5"},
      {"measurement": "SDR response", "setting": "[1]; M -2.85", "result": "216.5 and 209.6 and 219.5"},
      {"measurement": "SDR response", "setting": "[1]; M -3.15", "result": "141.4 and 163.1 and 159.6"},
      {"measurement": "SDR response", "setting": "[1]; M -3.45", "result": "83.0 and 105.1 and 112.1"},
      {"measurement": "SDR response", "setting": "[1]; M -3.75", "result": "54.1 and 71.7 and 73.7"},
      {"measurement": "SDR response", "setting": "[1]; M -4.05", "result": "18.5 and 46.9 and 44.7"},
      {"measurement": "SDR response", "setting": "[1]; M -4.35", "result": "22.4 and 27.8 and 30.1"},
      {"measurement": "SDR response", "setting": "[1]; M -4.65", "result": "18.5 and 22.1 and 22.3"},
      {"measurement": "SDR response", "setting": "[1]; M -4.95", "result": "14.4 and 13.8"},
      {"measurement": "SDR response", "setting": "[1]; M -5.25", "result": "9.3 and 8.9"},
      {"measurement": "SDR response", "setting": "[1]; M -5.55", "result": "9.2 and 6.3"},
      {"measurement": "SDR response", "setting": "[1]; M -5.86", "result": "6.9 and 3.3 and 6.8"},
      {"measurement": "SDR response", "setting": "[1]; M -6.16", "result": "7.3 and 4.5"},
      {"measurement": "SDR response", "setting": "[1]; M -6.46", "result": "6.2 and 3.9 and 5.5"},
      {"measurement": "SDR response", "setting": "[1]; M -6.76", "result": "4.6 and 1.8 and 4.9"},
      {"measurement": "SDR assay response (in words)", "setting": "[1]; T7 Lig-C-HiBiT", "result": "strong SDR signal"},
      {"measurement": "SDR assay statistics Ave RLU", "setting": "[1]; [3]", "result": 70.8, "unit": "RLU"},
      {"measurement": "SDR assay statistics S:B", "setting": "[1]; [3]", "result": 1.4},
      {"measurement": "SDR assay statistics Z’", "setting": "[1]; [3]", "result": -0.186},
      {"measurement": "max resp", "setting": "[1]; T7 Lig-C-HiBiT, maximum response", "result": 215.2},
      {"measurement": "SDR assay data", "setting": "[2]; M -3.15", "result": "6.4 and 7.5 and 12.8"},
      {"measurement": "SDR assay data", "setting": "[2]; M -3.75", "result": "7.0 and 9.1"},
      {"measurement": "SDR assay data", "setting": "[2]; M -4.05", "result": "6.9 and 5.8 and 9.6"},
      {"measurement": "SDR assay data", "setting": "[2]; M -6.76", "result": "5.3 and 6.4 and 8.6"},
      {"measurement": "SDR assay statistics Ave RLU", "setting": "[2]; [4]", "result": 2214.0, "unit": "RLU"},
      {"measurement": "SDR assay statistics S:B", "setting": "[2]; [4]", "result": 1.1},
      {"measurement": "max resp", "setting": "[2]; E. coli Lig-C-HiBiT, maximum response", "result": 7.8},
      {"measurement": "SDR response", "setting": "[2]; M -2.85", "result": "4.8 and 10.7"},
      {"measurement": "SDR response", "setting": "[2]; M -3.15", "result": "6.4 and 12.8"},
      {"measurement": "SDR response", "setting": "[2]; M -3.45", "result": "4.5 and 9.6"},
      {"measurement": "SDR response", "setting": "[2]; M -3.75", "result": "7.0 and 9.1"},
      {"measurement": "SDR response", "setting": "[2]; M -4.05", "result": "6.9 and 5.8 and 9.6"},
      {"measurement": "SDR response", "setting": "[2]; M -4.35", "result": "9.4 and 4.6 and 6.2"},
      {"measurement": "SDR response", "setting": "[2]; M -4.65", "result": "10.2 and 2.5"},
      {"measurement": "SDR response", "setting": "[2]; M -4.95", "result": "10.5 and 2.6"},
      {"measurement": "SDR response", "setting": "[2]; M -5.25", "result": "4.4 and 2.6 and 13.4"},
      {"measurement": "SDR response", "setting": "[2]; M -5.55", "result": "1.7 and 7.1"},
      {"measurement": "SDR response", "setting": "[2]; M -5.86", "result": 5.9},
      {"measurement": "SDR response", "setting": "[2]; M -6.16", "result": "9.8 and 1.1 and 5.3"},
      {"measurement": "SDR response", "setting": "[2]; M -6.46", "result": "6.3 and 0.236 and 4.6"},
      {"measurement": "SDR response", "setting": "[2]; M -6.76", "result": "5.3 and 6.4"}
    ]},
    {"molecule": "CC(C)C[C@H](NC(=O)[C@H](Cc1ccc(O)cc1)NC(=O)[C@@H]1CSCC(=O)N[C@H](Cc2ccc(O)cc2)C(=O)N[C@@H](CC(=O)O)C(=O)N[C@@H](Cc2ccc(O)cc2)C(=O)N2CCC[C@H]2C(=O)NCC(=O)N[C@@H](CC(=O)O)C(=O)N[C@@H](Cc2ccc(O)cc2)C(=O)N1)C(=O)N[C@@H](Cc1ccc(O)cc1)C(=O)NCC(=O)N[C@H](C(=O)N[C@@H](CS)C(=O)NCC(N)=O)[C@@H](C)O", "note": "[Ce-2]", "values": [
      {"measurement": "Standard assay statistics Ave RLU", "setting": "C. elegans iPGM-C-HiBiT", "result": 3361.1, "unit": "RLU"},
      {"measurement": "Standard assay statistics S:B", "setting": "C. elegans iPGM-C-HiBiT", "result": 8.4},
      {"measurement": "Standard assay statistics S:N", "setting": "C. elegans iPGM-C-HiBiT", "result": -16.5},
      {"measurement": "Standard assay statistics Z’", "setting": "C. elegans iPGM-C-HiBiT", "result": 0.816}
    ]}
  ]
}
